Consider 47 compounds from patent US6812229B1, “Carbamate derivative and agricultural/horticultural fungicide” (Kumiai Chemical Industry Co., Ltd., priority 1999, dated 2004).

In one series the test system is Erysiphe graminis. Kind of series: Test for preventive effect on wheat powdery mildew. It is filed as in vivo. The following applies: wheat seedlings (Norin-61-go), two-leaf stage, 500 ppm active ingredient, wettable powder, total diseased area of first leaves 10 days after inoculation. On the procedure: 10 Wheat seeds (variety: Norin-61-go) were sown in each plastic pot having a diameter of 6 cm, and grown in a greenhouse. Wheat seedlings which reached a two-leaf stage were treated with 10 ml per pot of aqueous solutions of wettable powders prepared in accordance with Formulation Example 2, at a concentration of 500 ppm in terms of the active ingredients, and dried in the air. Then, the seedlings were inoculated with Erysiphe graminis spore and controlled in a greenhouse. 10 Days after the inoculation, the total diseased area of the first leaves in each pot was observed and evaluated on the basis of the standards shown in Table 21.

The test system of the next series is Septoria nodorum. Kind of series: Test for preventive effect on Septoria leaf blotch of wheat. It is filed as in vivo. Conditions: wheat seedlings (Norin-61-go), two-leaf stage, 50 ppm active ingredient, 10 ml per pot, evaluated 10 days after inoculation with Septoria nodorum. An excerpt:
[table] 10 Wheat seeds (variety: Norin-61-go) were sown in each plastic pot having a diameter of 6 cm, and grown in a greenhouse. […] Then, the seedlings were inoculated with Septoria nodorum […] controlled in a greenhouse. 10 Days after the inoculation, the total diseased area of the first leaves in each pot was observed and evaluated on the basis of the standards shown in Table 21.

The test system of the next series is Botrytis cinerea. Kind of series: Test for preventive effect on cucumber gray mold. In kind it is in vivo. The following applies: cucumber seedlings (Sagami-hanziro), cotyledon stage, 500 ppm active ingredient, 10 ml per pot, evaluated 3 days after inoculation with Botrytis cinerea, 22° C moist chamber. The procedure:
4 cucumber seeds (variety: Sagami-hanziro) were sown in each plastic pot having a diameter of 6 cm and grown in a greenhouse. Cucumber young seedlings which reached a cotyledon stage were treated with 10 ml per pot of aqueous solutions of wettable powders prepared in accordance with Formulation Example 2, at a concentration of 500 ppm in terms of the active ingredients and dried in the air. Then, the seedlings were inoculated with Botrytis cinerea spore by putting a paper disc soaked with the spore suspension on the surface of the cucumber cotyledons, and the seedlings were immediately placed in a moist chamber of 22° C. 3 Days after the inoculation, the total diseased area of the cotyledons in each pot was observed and evaluated on the basis of the standards shown in Table 24.

Take `CCON=C(c1ccccc1)c1cccc(CNC(=O)OC)c1` [A-43]: in the series with Erysiphe graminis, the Evaluation entry is listed as “A (No diseased area)”.
With `COC(=O)NCc1cc(C(C)=NOCc2ccccc2)ccc1C` [A-113], in the series on Erysiphe graminis, the Evaluation entry is reported as “A (No diseased area)”. The “Evaluation (total diseased area of the first leaves)” value in the series with Septoria nodorum is reported as “A (No diseased area)”.
Turning to `C=CCON=C(C)c1cccc(CNC(=O)OC)c1` [A-37], the Evaluation entry in the series with Erysiphe graminis is recorded as “A (No diseased area)”.
Same read-out and setting: the value for `CON=C(C)c1ccc(Cl)c(CNC(=O)OC)c1` [A-46] was “A (No diseased area)”.
On to `COC(=O)NCc1cc(C(C)=NOCc2cccc(F)c2)ccc1Cl` [A-82], for which the Evaluation result with Erysiphe graminis was “A (No diseased area)”. In the series with Septoria nodorum, the “Evaluation (total diseased area of the first leaves)” value is “B (Diseased area of less than 5%)”.
In general, melting point refers to the temperature of the solid-liquid transition. For `COC(=O)NCc1cc(C(C)=NOCc2ccc(F)cc2)ccc1Cl` [A-83, Methyl N-{2-chloro-5-[1-(4-fluorobenzyloxyimino)ethyl]benzyl}carbamate], the melting point fell in the range of 101 to 103 °C. In addition, in the series on Erysiphe graminis, the Evaluation entry was “A (No diseased area)”. The “Evaluation (total diseased area of the first leaves)” value in the series with Septoria nodorum is listed as “A (No diseased area)”.
Take `CON=C(C)c1cccc(CON=C(C)c2ccc(Cl)c(CNC(=O)OC)c2)c1` [A-291]: in the series with Botrytis cinerea, the “Evaluation (total diseased area of the cotyledons)” value was found to be 3. Also, in the series with Septoria nodorum, the “Evaluation (total diseased area of the first leaves)” value was “A (No diseased area)”.
With `COC(=O)NCc1cc(C(C)=NOCc2cccc(Cl)c2)ccc1Cl` (single isomer, unassigned) [A-85], in the series with Erysiphe graminis, the Evaluation entry is reported as “A (No diseased area)”. Moreover, the “Evaluation (total diseased area of the first leaves)” value with Septoria nodorum is on record as “B (Diseased area of less than 5%)”.
As for `COC(=O)NCc1cc(C(C)=NOCc2ccc(C(F)(F)F)cc2)ccc1Cl` [A-101], in the series on Erysiphe graminis, the Evaluation result is recorded as “A (No diseased area)”.
Regarding `COC(=O)NCc1cc(C(C)=NOCC(=O)OC(C)(C)C)ccc1Cl` [A-64], in the series on Erysiphe graminis, the Evaluation entry is “B (Diseased area of less than 5%)”. The “Evaluation (total diseased area of the first leaves)” value in the series with Septoria nodorum is on record as “A (No diseased area)”.
As to `CCON=C(C)c1cccc(CNC(=O)OC)c1` [A-39], the Evaluation entry in the series with Erysiphe graminis is listed as “A (No diseased area)”.
Consider `COC(=O)NCc1cc(C(C)=NOCc2ccccc2Cl)ccc1Cl` (single isomer, unassigned) [A-84], for which the Evaluation result with Erysiphe graminis is “A (No diseased area)”.
Still for that read-out and setting: the value for `CCCON=C(C)c1ccc(Cl)c(CNC(=O)OC)c1` [A-50] was “A (No diseased area)”.
Take `COC(=O)NCc1cc(C(C)=NOCc2ccc(C)cc2)ccc1Cl` [A-92]: the Evaluation entry in the series on Erysiphe graminis is reported as “A (No diseased area)”. Moreover, in the series on Septoria nodorum, the “Evaluation (total diseased area of the first leaves)” value was “B (Diseased area of less than 5%)”.
The matching figures for `COC(=O)NCc1cc(C(C)=NOCc2ccc(Br)cc2)ccc1Cl` [A-89]: “A (No diseased area)” and “B (Diseased area of less than 5%)”.
Regarding `CON=C(c1ccccc1)c1cccc(CNC(=O)OC)c1` [A-42], the Evaluation result in the series on Erysiphe graminis is “A (No diseased area)”.
Regarding `COC(=O)NCc1cc(C(C)=NOC(C)C)ccc1Cl` [A-51], the Evaluation entry in the series with Erysiphe graminis is “A (No diseased area)”. Also, the “Evaluation (total diseased area of the first leaves)” value in the series on Septoria nodorum is “B (Diseased area of less than 5%)”.
For `COC(=O)NCc1cccc(C(C)=NOCc2ccccc2)c1` [A-38], in the series on Erysiphe graminis, the Evaluation result was “A (No diseased area)”.
As to `COC(=O)NCc1cc(C(C)=NOCc2ccc(C(C)(C)C)cc2)ccc1Cl` [A-98], in the series with Erysiphe graminis, the Evaluation result is on record as “A (No diseased area)”. Moreover, the “Evaluation (total diseased area of the first leaves)” value in the series on Septoria nodorum was “A (No diseased area)”.
Turning to `C#CCON=C(C)c1ccc(Cl)c(CNC(=O)OC)c1` [A-61], the Evaluation entry in the series on Erysiphe graminis is recorded as “A (No diseased area)”. Besides, the “Evaluation (total diseased area of the first leaves)” value in the series with Septoria nodorum is “B (Diseased area of less than 5%)”.
As for `CCON=C(C)c1ccc(Cl)c(CNC(=O)OC)c1` [A-49], the Evaluation entry in the series on Erysiphe graminis is listed as “A (No diseased area)”.
For the compound `COC(=O)NCc1cc(C(C)=NOCc2ccccc2F)ccc1Cl` [A-81], the Evaluation entry in the series with Erysiphe graminis is “A (No diseased area)”. Besides, in the series on Septoria nodorum, the “Evaluation (total diseased area of the first leaves)” value is recorded as “B (Diseased area of less than 5%)”.
The matching figures for `COC(=O)NCc1cc(C(C)=NOCCCc2ccccc2)ccc1Cl` [A-62]: “A (No diseased area)” and “B (Diseased area of less than 5%)”.
On to `COC(=O)NCc1cc(C(C)=NOCc2cccc(Br)c2)ccc1Cl` [A-88], for which, in the series with Erysiphe graminis, the Evaluation entry is “A (No diseased area)”. Also, in the series on Septoria nodorum, the “Evaluation (total diseased area of the first leaves)” value was “B (Diseased area of less than 5%)”.
As to `COC(=O)NCc1cc(C(C)=NOCc2cccc(C(F)(F)F)c2)ccc1Cl` [A-100], in the series with Erysiphe graminis, the Evaluation entry is reported as “A (No diseased area)”.
On to `COC(=O)NCc1cc(C(C)=NOCc2ccccc2C(F)(F)F)ccc1Cl` [A-99], for which the Evaluation result with Erysiphe graminis is on record as “A (No diseased area)”. The “Evaluation (total diseased area of the first leaves)” value in the series on Septoria nodorum is “B (Diseased area of less than 5%)”.
Take `CON=C(C#N)c1ccc(Cl)c(CNC(=O)OC)c1` [A-3, 2-[4-chloro-3-(methoxycarbonylaminomethyl)phenyl]-2-methoxyiminoacetonitrile]: the melting point is 104 to 107 °C. Further, the Evaluation result with Erysiphe graminis is listed as “A (No diseased area)”. In the series with Septoria nodorum, the “Evaluation (total diseased area of the first leaves)” value is listed as “B (Diseased area of less than 5%)”.
`COC(=O)NCc1cc(C(C)=NO)ccc1Cl` [A-45, Methyl N-[2-chloro-5-(1-hydroxyiminoethyl)benzyl]carbamate] had a melting point of 124 to 127 °C.
`COC(=O)NCc1cc(C(C)=NOCc2cccc(C)n2)ccc1C` [A-434, Methyl N-{2-methyl-5-[1-(6-methylpyridin-2-ylmethoxy)iminoethyl]benzyl}carbamate] showed a melting point of 72 to 75 °C.
With `CON=C(C)c1cccc(CNC(=O)OC)c1` [A-40, Methyl N-[3-(1-methoxyiminoethyl)benzyl]carbamate], the Evaluation entry in the series on Erysiphe graminis is recorded as “A (No diseased area)”.
In the case of `COC(=O)NCc1cc(C(C)=NOCc2ccccc2C)ccc1Cl` [A-90], the Evaluation result in the series on Erysiphe graminis was “A (No diseased area)”. Besides, the “Evaluation (total diseased area of the first leaves)” value with Septoria nodorum is reported as “A (No diseased area)”.
Regarding `C=CCON=C(c1ccccc1)c1cccc(CNC(=O)OC)c1` [A-41], the Evaluation entry in the series on Erysiphe graminis is “B (Diseased area of less than 5%)”.
Consider `COC(=O)NCc1cc(C(C)=NOCc2ccc(Cl)cc2)ccc1Cl` (single isomer, unassigned) [A-86], for which, in the series on Erysiphe graminis, the Evaluation result was “A (No diseased area)”.
In the case of `COC(=O)NCc1cc(C(C)=NOCc2ccccc2)ccc1Cl` (single isomer, unassigned) [A-80], the Evaluation result with Erysiphe graminis is reported as “A (No diseased area)”. Besides, in the series on Septoria nodorum, the “Evaluation (total diseased area of the first leaves)” value is “A (No diseased area)”.
For the compound `COC(=O)NCc1cc(C(C)=NOCc2ccccc2Br)ccc1Cl` [A-87], in the series with Erysiphe graminis, the Evaluation entry was “A (No diseased area)”. The “Evaluation (total diseased area of the first leaves)” value with Septoria nodorum is “B (Diseased area of less than 5%)”.
In the same order, the values of `C=CCON=C(C)c1ccc(Cl)c(CNC(=O)OC)c1` [A-58] are “A (No diseased area)” and “B (Diseased area of less than 5%)”.
For `COC(=O)NCc1cc(C(C)=NOC(C)(C)C)ccc1Cl` [A-55], the Evaluation entry in the series on Erysiphe graminis is “A (No diseased area)”.
In the case of `COC(=O)NCc1cc(C=NOCc2ccccc2)ccc1C` [A-112], the Evaluation result in the series with Erysiphe graminis is “A (No diseased area)”. The “Evaluation (total diseased area of the first leaves)” value in the series on Septoria nodorum is listed as “B (Diseased area of less than 5%)”.
In the same order, the values of `COC(=O)NCc1cc(C(C)=NOCc2cccc(C)c2)ccc1Cl` [A-91] are “A (No diseased area)” and “B (Diseased area of less than 5%)”.
Turning to `COC(=O)NCc1cc(C(C)=NOCc2cccc(Cl)c2)ccc1F` [A-371], the “Evaluation (total diseased area of the first leaves)” value with Septoria nodorum is given as “A (No diseased area)”.
For `COC(=O)NCc1cc(C(C)=NOC(C)c2ccccc2)ccc1Cl` (centres unmarked) [A-216], the “Evaluation (total diseased area of the first leaves)” value in the series with Septoria nodorum is “A (No diseased area)”.
On to `COC(=O)NCc1cc(C(C)=NOCc2ccccc2C#N)cc(C)c1Cl` [A-356], for which the “Evaluation (total diseased area of the first leaves)” value with Septoria nodorum is listed as “A (No diseased area)”.
Still for that read-out and setting: the value for `COC(=O)NCc1cccc(C(C)=NOCc2cccc(C(F)(F)F)c2)c1` [A-349] was “A (No diseased area)”.
On the same count and under the same terms, as for `COC(=O)NCc1cc(C(C)=NOCc2cccc(OC)c2)ccc1F` [A-329], the entry is “A (No diseased area)”.
Still for that read-out and setting: the value for `C=CCCON=C(C)c1ccc(Cl)c(CNC(=O)OC)c1` [A-198] was “A (No diseased area)”.
On to `COC(=O)NCc1cccc(C(C)=NOCc2ccc(C)cc2)c1` [A-345], for which, in the series on Septoria nodorum, the “Evaluation (total diseased area of the first leaves)” value is recorded as “B (Diseased area of less than 5%)”.
With `COC(=O)NCc1cccc(C(C)=NOCc2cccc(C)c2)c1` [A-344], the “Evaluation (total diseased area of the first leaves)” value in the series on Septoria nodorum was “A (No diseased area)”.
